SMILES strings stand for the structures.

The subject of assay [1] is TGF-β-stimulated SMAD3 phosphorylation in BEAS-2B cells. The assay is described as follows: Cellular ALK5 potency assay, inhibition of TGF-β stimulated pSMAD3 formation in BEAS-2B cells. The format is cell-based. The note with it: Homo sapiens, pSMAD3, TGF-β 10 ng/mL, read-out: BEAS2B pIC50 (converted). The essentials:
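Human lung epithelial BEAS-2B cells were pre-treated with compound for 1 h at 37 °C, then stimulated with TGF-β (final 10 ng/mL) for 30 min before lysis. pSMAD3 was quantified by AlphaLISA and pIC50 derived from dose-dependent signal change versus TGF-β-stimulated untreated cells.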

Assay [2] has as its target T1, recombinant human ALK5 (TGF-βR1) protein (Homo sapiens, UniProt P36897).
T1 construct: purchased Life Technologies PR9075A
T1 sequence (P36897 34-503): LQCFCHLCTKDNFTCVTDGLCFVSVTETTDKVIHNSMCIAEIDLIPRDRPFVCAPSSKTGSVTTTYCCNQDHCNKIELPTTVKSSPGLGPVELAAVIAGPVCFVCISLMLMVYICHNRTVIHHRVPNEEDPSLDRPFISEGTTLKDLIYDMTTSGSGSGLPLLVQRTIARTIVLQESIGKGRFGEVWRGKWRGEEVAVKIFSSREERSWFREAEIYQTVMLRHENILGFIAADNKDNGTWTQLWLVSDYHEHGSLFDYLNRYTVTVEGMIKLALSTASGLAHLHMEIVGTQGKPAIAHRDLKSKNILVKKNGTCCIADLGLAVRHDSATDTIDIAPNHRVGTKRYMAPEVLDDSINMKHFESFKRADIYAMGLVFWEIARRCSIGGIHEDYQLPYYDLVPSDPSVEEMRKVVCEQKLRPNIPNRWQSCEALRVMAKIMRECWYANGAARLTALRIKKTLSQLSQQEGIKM
Kind of assay: Biochemical ALK5 (TGF-βR1) assay to measure pKi (LANCE Ultra ULight kinase assay). The note with it: apparent pKi, converted from pIC50 by Cheng-Prusoff. Summed up: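 Read-out was LANCE Ultra TR-FRET with a europium anti-phospho-Topo IIα Thr1342 antibody after EDTA quench. Kinase reaction ran 60 min at 37 °C with ATP added from a 125 μM 5× stock, after 60 min compound–enzyme equilibration at room temperature. Values are pKi from Cheng-Prusoff conversion of fitted pIC50.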

Consider `Cc1cccc(-c2nccc(Nc3ccnc(Nc4cc(C(=O)OC5CNC5)cs4)n3)n2)n1` [Compound 207, azetidin-3-yl 5-[[4-[[2-(6-methyl-2-pyridyl)pyrimidin-4-yl]amino]pyrimidin-2-yl]amino]thiophene-3-carboxylate], for which, in assay [1], the IC50 is 25.1 to 158 nM. Further, the Ki in assay [2] is 0.0398 to 0.316 nM.
The corresponding values for `Cc1cccc(-c2nccc(Nc3ccnc(Nc4ccc(S(=O)(=O)NCCN)cc4)n3)n2)n1` [Compound 208, N-(2-aminoethyl)-4-[[4-[[2-(6-methyl-2-pyridyl)pyrimidin-4-yl]amino]pyrimidin-2-yl]amino]benzenesulfonamide] are at most 20 nM and at most 0.0316 nM.
The corresponding values for `Cc1cccc(-c2nccc(Nc3ccnc(Nc4ccc(NC(=O)C5(CO)CNC5)cc4)n3)n2)n1` [Compound 209, 3-(hydroxymethyl)-N-(4-((4-((2-(6-methylpyridin-2-yl)pyrimidin-4-yl)amino)pyrimidin-2-yl)amino)phenyl)azetidine-3-carboxamide] are at most 20 nM and 0.0398 to 0.316 nM.
For `Cc1cccc(-c2nccc(Nc3ccnc(Nc4ccc(CN5CCC[C@H](C(=O)O[C@H]6CCN(C)C6)C5)cc4)n3)n2)n1` [Compound 210, [(3S)-1-methylpyrrolidin-3-yl] (3S)-1-[[4-[[4-[[2-(6-methyl-2-pyridyl)pyrimidin-4-yl]amino]pyrimidin-2-yl]amino]phenyl]methyl] piperidine-3-carboxylate], in that order: at most 20 nM and 0.0398 to 0.316 nM.
With `Cc1cccc(-c2nccc(Nc3ccnc(Nc4csc(NC(=O)C5CNC5)c4)n3)n2)n1` [Compound 211, N-[4-[[4-[[2-(6-methyl-2-pyridyl)pyrimidin-4-yl]amino]pyrimidin-2-yl]amino]-2-thienyl]azetidine-3-carboxamide], the IC50 in assay [1] is 25.1 to 158 nM. Also, the Ki in assay [2] is 0.0398 to 0.316 nM.
For `Cc1cccc(-c2nccc(Nc3ccnc(Nc4ccc(S(=O)(=O)N5CCN(C(C)C)CC5)cc4)n3)n2)n1` [Compound 213, N2-[4-(4-isopropylpiperazin-1-yl)sulfonylphenyl]-N4-[2-(6-methyl-2-pyridyl)pyrimidin-4-yl]pyrimidine-2,4-diamine], in that order: 25.1 to 158 nM and 0.0398 to 0.316 nM.
On to `Cc1cccc(-c2nccc(Nc3ccnc(Nc4ccc(CN5CCCC(C(=O)NC6CNC6)C5)cc4)n3)n2)n1` (stereo not shown) [Compound 214, N-(azetidin-3-yl)-1-[[4-[[4-[[2-(6-methyl-2-pyridyl)pyrimidin-4-yl]amino]pyrimidin-2-yl]amino]phenyl]methyl] piperidine-3-carboxamide], for which the IC50 in assay [1] was 25.1 to 158 nM. In addition, the Ki in assay [2] is 0.0398 to 0.316 nM.
In the case of `Cc1cccc(-c2nccc(Nc3ccnc(Nc4ccc(N5CCCC(C(=O)OC6CCNCC6)C5)cc4)n3)n2)n1` (stereo not shown) [Compound 215, 4-piperidyl 1-[4-[[4-[[2-(6-methyl-2-pyridyl)pyrimidin-4-yl]amino]pyrimidin-2-yl]amino]phenyl]piperidine-3-carboxylate], in assay [1], the IC50 was 200 to 1260 nM. In assay [2], the Ki is 0.0398 to 0.316 nM.
In the case of `Cc1cccc(-c2nccc(Nc3ccnc(Nc4csc(C(=O)O[C@H]5CCN(C)C5)c4)n3)n2)n1` [Compound 217, [(3S)-1-methylpyrrolidin-3-yl] 4-[[4-[[2-(6-methyl-2-pyridyl)pyrimidin-4-yl]amino]pyrimidin-2-yl]amino]thiophene-2-carboxylate], in assay [1], the IC50 was 25.1 to 158 nM. In addition, the Ki in assay [2] was 0.0398 to 0.316 nM.
For `Cc1cccc(-c2nccc(Nc3ccnc(Nc4ccc(N5CCC(C(=O)OC6CCNCC6)CC5)cc4)n3)n2)n1` [Compound 218, 4-piperidyl 1-[4-[[4-[[2-(6-methyl-2-pyridyl)pyrimidin-4-yl]amino]pyrimidin-2-yl]amino]phenyl]piperidine-4-carboxylate], in that order: 25.1 to 158 nM and 0.0398 to 0.316 nM.
For `Cc1cccc(-c2nccc(Nc3ccnc(Nc4ccc(N5CCC(CNCc6ccccn6)CC5)cc4)n3)n2)n1` [Compound 219, N4-[2-(6-methyl-2-pyridyl)pyrimidin-4-yl]-N2-[4-[4-[(2-pyridylmethylamino)methyl]-1-piperidyl]phenyl]pyrimidine-2,4-diamine], in that order: 25.1 to 158 nM and 0.0398 to 0.316 nM.
The corresponding values for `Cc1cccc(-c2nccc(Nc3ccnc(Nc4ccc(N5CCC(C(=O)OC6CNC6)CC5)cc4)n3)n2)n1` [Compound 220, azetidin-3-yl 1-[4-[[4-[[2-(6-methyl-2-pyridyl)pyrimidin-4-yl]amino]pyrimidin-2-yl]amino]phenyl]piperidine-4-carboxylate] are 25.1 to 158 nM and 0.0398 to 0.316 nM.
Regarding `Cc1cccc(-c2nccc(Nc3ccnc(Nc4ccc(N5C6CCC5CNC6)cc4)n3)n2)n1` [Compound 221, N2-(4-(3,8-diazabicyclo[3.2.1]octan-8-yl)phenyl)-N4-(2-(6-methylpyridin-2-yl)pyrimidin-4-yl)pyrimidine-2,4-diamine], the IC50 in assay [1] is 25.1 to 158 nM. In addition, the Ki in assay [2] was 0.0398 to 0.316 nM.
For `Cc1cccc(-c2nc(C)cc(Nc3ccnc(Nc4ccc(N5CCN(C)CC5)cc4)n3)n2)n1` [Compound 222, N4-[6-methyl-2-(6-methyl-2-pyridyl)pyrimidin-4-yl]-N2-[4-(4-methylpiperazin-1-yl)phenyl]pyrimidine-2,4-diamine], in that order: 25.1 to 158 nM and 0.0398 to 0.316 nM.
The corresponding values for `Cc1cccc(-c2nccc(Nc3ccnc(Nc4ccc5c(c4)CCN(C(C)C)CC5)n3)n2)n1` [Compound 223, N2-(3-isopropyl-2,3,4,5-tetrahydro-1H-benzo[d]azepin-7-yl)-N4-(2-(6-methylpyridin-2-yl)pyrimidin-4-yl)pyrimidine-2,4-diamine] are 25.1 to 158 nM and at most 0.0316 nM.
The corresponding values for `Cc1cccc(-c2nccc(Nc3ccnc(Nc4ccc(CN5CCC[C@H](C(=O)O)C5)cc4)n3)n2)n1` [Compound 224, (3S)-1-[[4-[[4-[[2-(6-methyl-2-pyridyl)pyrimidin-4-yl]amino]pyrimidin-2-yl]amino]phenyl]methyl] piperidine-3-carboxylic acid] are 200 to 1260 nM and 0.0398 to 0.316 nM.
For the molecule `Cc1cccc(-c2nccc(Nc3ccnc(Nc4ccc5c(c4)NCCC5)n3)n2)n1` [Compound 225, N4-[2-(6-methyl-2-pyridyl)pyrimidin-4-yl]-N2-(1,2,3,4-tetrahydroquinolin-7-yl)pyrimidine-2,4-diamine], the IC50 in assay [1] was 25.1 to 158 nM. Moreover, in assay [2], the Ki is 0.0398 to 0.316 nM.
Regarding `Cc1cccc(-c2nccc(Nc3ccnc(Nc4nc(C)cs4)n3)n2)n1` [Compound 226, N4-[2-(6-methyl-2-pyridyl)pyrimidin-4-yl]-N2-(4-methylthiazol-2-yl)pyrimidine-2,4-diamine], in assay [1], the IC50 is 25.1 to 158 nM. Moreover, in assay [2], the Ki is 3.98 to 31.6 nM.
`Cc1cccc(-c2nccc(Nc3ccnc(Nc4cccc(NC(=O)C5CCNC5)c4)n3)n2)n1` (stereo not shown) [Compound 227, N-[3-[[4-[[2-(6-methyl-2-pyridyl)pyrimidin-4-yl]amino]pyrimidin-2-yl]amino]phenyl]pyrrolidine-3-carboxamide]: the IC50 in assay [1] was at most 20 nM. Further, in assay [2], the Ki was 0.0398 to 0.316 nM.
For the molecule `Cc1cccc(-c2nccc(Nc3ccnc(Nc4ccc(NC(=O)N5CCNCC5)cc4)n3)n2)n1` [Compound 228, N-(4-((4-((2-(6-methylpyridin-2-yl)pyrimidin-4-yl)amino)pyrimidin-2-yl)amino)phenyl)piperazine-1-carboxamide], the IC50 in assay [1] is 25.1 to 158 nM. For the same molecule, the Ki in assay [2] was 0.0398 to 0.316 nM.

The record behind these values is patent US20230399312A1, “SUBSTITUTED PYRIMIDINES AND METHODS OF USE” (THERAVANCE BIOPHARMA R&D IP, LLC, priority 2020, published 2023).
